The source of these data is US20260014204A1, “STEM CELL-DRUG CARRIER COMPRISING MELATONIN-CONTAINING DRUG CARRIER AND STEM CELL AND USES THEREOF” (priority 2024, published 2026).

For the assay, the system named is small intestine epithelial organoids. Briefly: Flow cytometry of Ly6a-expressing cells, comparison by drug type. Type of assay: cell-based. The note with it: drug applied together with stem cells (summary statement). Here is the method: In the art, quercetin is known as a therapeutic agent for inflammatory bowel disease. Accordingly, in Example 4, the revival stem cell induction ability of heterospheroids (hereinafter referred to as ‘Mel-HS’) including melatonin microspheres and 3D mesenchymal stem cells prepared in Example 1-1; and heterospheroids (hereinafter referred to as ‘Q-HS’) including quercetin microspheres and 3D mesenchymal stem cells was compared. The Q-HS was prepared by the same method as Example 1-1, but using quercetin instead of melatonin. Mel-HS was treated in small intestine epithelial organoids and then co-cultured for 48 hours. After culturing, cells expressing a revival stem cell marker Ly6a of the small intestine epithelial organoids were analyzed by flow cytometry. In addition, a Q-HS-treated group was also performed in the same manner as described above. As a control group for the experiment, 2D mesenchymal stem cells (2D) or 3D mesenchymal stem cells (3D) were treated. The flow cytometry results of the Mel-HS-treated group were shown in FIG. 4A, and the flow cytometry results of the Q-HS-treated group were shown in FIG. 4B.
(Flow cytometry measures light scatter and fluorescence of single cells or particles in a stream.)

With `COc1ccc2[nH]cc(CCNC(C)=O)c2c1` [melatonin], the “induction of revival stem cells” value is listed as “induced revival stem cells”.

For `O=c1c(O)c(-c2ccc(O)c(O)c2)oc2cc(O)cc(O)c12` [quercetin], the “induction of revival stem cells” value is recorded as “no significant effect”.
